Each molecule was assayed against T1, Topo I (Saccharomyces cerevisiae, UniProt P04786) (assay: Yeast toxicity in strains with or without Topo I (rad50 vs rad50 top1)). Conditions: rad50 top1 vs rad50 strain.
T1 construct: yeast strains that are DSB repair defective, with (rad50) or without Topo I (rad50, top1), and a wild type control (wt); endogenous in cells; host or cells: S. cerevisiae A364a background, rad50 (erg6 pdr1 pdr3), compared with rad50 top1
T1 sequence (P04786 1-769): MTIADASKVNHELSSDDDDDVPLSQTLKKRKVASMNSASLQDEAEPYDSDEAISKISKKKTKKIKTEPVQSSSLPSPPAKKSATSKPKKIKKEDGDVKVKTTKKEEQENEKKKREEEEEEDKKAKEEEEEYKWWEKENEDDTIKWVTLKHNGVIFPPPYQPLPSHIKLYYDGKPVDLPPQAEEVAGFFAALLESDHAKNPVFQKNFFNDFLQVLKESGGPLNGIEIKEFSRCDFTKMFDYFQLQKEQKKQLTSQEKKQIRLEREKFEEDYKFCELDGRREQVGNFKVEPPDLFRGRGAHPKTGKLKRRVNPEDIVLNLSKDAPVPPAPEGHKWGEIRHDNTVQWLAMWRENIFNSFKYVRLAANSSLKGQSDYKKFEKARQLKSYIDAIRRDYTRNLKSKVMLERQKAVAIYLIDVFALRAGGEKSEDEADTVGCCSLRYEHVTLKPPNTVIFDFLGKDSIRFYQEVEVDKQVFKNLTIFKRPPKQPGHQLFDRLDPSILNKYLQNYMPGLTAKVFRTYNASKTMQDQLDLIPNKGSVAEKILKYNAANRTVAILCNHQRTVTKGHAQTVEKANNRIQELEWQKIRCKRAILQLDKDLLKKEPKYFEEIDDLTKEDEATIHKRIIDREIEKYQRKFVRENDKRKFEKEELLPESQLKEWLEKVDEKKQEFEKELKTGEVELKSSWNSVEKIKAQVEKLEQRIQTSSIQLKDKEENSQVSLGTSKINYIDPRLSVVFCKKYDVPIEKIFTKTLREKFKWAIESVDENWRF
Assay type: cell-based
Text: The strains are derived from the A364a genetic background, with the exception of BY4705, which is derived from the S288C background. Gene disruptions were generated by PCR fragment directed replacement (Baudin, et al., Nucleic Acids Research 21: 3329–30 (1993), Guldener, et al., Nucleic Acids Research 24: 2519–24 (1996)). Yeast overexpressing topoisomerase II was constructed by a PCR fragment directed promoter replacement of the topoisomerase II promoter with the yeast GPD promoter flanked upstream by the URA3 marker. All strains (except BY4705) bear the pleitropic drug sensitizing mutations erg6, pdr1, and pdr3 (Balzi, et al., Journal of Bioenergetics & Biomembranes 27: 71–6 (1995), Delaveau, et al, Molecular & General Genetics 244: 501–11 (1994), Gaber, et al., Molecular & Cellular Biology 9: 3447–56 (1989), Saunders, et al., Canadian Journal of Genetics & Cytology, 24: 493–503 (1982). Subik, et al, Current Genetics 10: 665–70 (1986)). The haploid yeast strain BY4705 (Brachmann, et al., Yeast 14: 115–32 (1998)) was used in the experiments described in FIG. 5. Plasmids expressing yeast or human topoisomerase I genes under the GAL promoter (Knab, et al., Journal of Biological Chemistry 268: 22322–30 (1993). Knab, et al., Journal of Biological Chemistry 270: 6141–8 (1995)) were transformed into BY4705 using standard procedures.
Yeast toxicity assays were performed essentially as follows: Exponentially growing cultures of the appropriate strains were diluted in synthetic complete media to a concentration of 7.4×10^4 cells/mL, and aliquots (135 μL) were transferred to each well of clear flat-bottomed 96 well plates. Compounds were added in duplicate or triplicate as 15 μL of the appropriate dilution in 5% DMSO. A 15 μL portion of 5% DMSO was added to control wells. Assay plates were incubated at 30° C. for approximately seven generations growth in solvent control wells (as monitored by OD660, typically 21–24 hours), then the OD660 of the cultures was measured in a microplate reader (Bio-Tek). […]
For `O=c1c(Cl)c(Cl)cnn1CCCl` [compound IIa], the “effect of deletion of the TOP1 gene on toxicity” value (shortened to “effect”) was “greatly reduced”. `O=C(CCl)Nc1ccc(C(=O)N/N=C/c2ccc(Cl)cc2)cc1` [compound Ia] was tested, and the “effect” value was “greatly reduced”. For `CC(=O)[C@]1(O)Cc2c(O)c3c(c(O)c2[C@@H](O[C@H]2C[C@H](N)[C@H](O)[C@H](C)O2)C1)C(=O)c1ccccc1C3=O` [idarubicin, reference compound], the “effect” value was “little effect”.
